One molecule from patent US12697343B2, “Intravenous istaroxime for the treatment of acute heart failure” (Seismic Pharmaceuticals Operations LLC, priority 2021, dated 2026) can be followed below.

Experiment [1] relates to patients hospitalized for acute heart failure (AHF). Kind of experiment: Diuresis over 24 h during and after study drug infusion. It counts as in vivo, human. The text has this: This study was a phase II, multicenter, randomized, double-blind, placebo-controlled, parallel group investigation, conducted at two sites in Italy and eight sites in China. All patients provided written informed consent. The study was approved by country regulatory authorities and by local institutional review boards. The trial is registered in the European Clinical Trials Database (EudraCT 2013-000540-26) and ClinicalTrials.gov (NCT02617446).
Patients were randomized 2:1 to istaroxime or placebo 24 h infusion and were enrolled in two sequential cohorts, the first with an istaroxime dose of 0.5 μg/kg/min and the second with an istaroxime dose of 1.0 μg/kg/min. At the end of cohort 1 enrollment, an independent Data Safety and Monitoring Board conducted an interim safety analysis of unblinded data before proceeding to cohort 2 enrollment. Inclusion criteria were: age ≥18 years, an ongoing hospitalization for AHF with dyspnoea at rest or minimal exertion and need for intravenous diuretic therapy (40 mg intravenous furosemide), SBP between 90 and 125 mmHg without signs or symptoms of peripheral hypoperfusion: LVEF ≤40%: intermediate to high E/e′ ratio by tissue Doppler echocardiography (10); brain natriuretic peptide (BNP) or N-terminal pro BNP (NT-proBNP) plasma levels ≥350 pg/mL or ≥1400 pg/mL, respectively, and presence of adequate echocardiographic windows. The main exclusion criteria were: concomitant or planned treatment with intravenous vasodilators, inotropes or vasopressors: treatment with oral digoxin (patients treated with digoxin within the last week could be randomized if the plasma concentration at screening was 0.5 ng/mL); acute coronary syndrome or stroke within the past 3 months: coronary artery bypass graft or percutaneous coronary intervention within the past month or planned in the next month: resting HR >120 bpm or <50 bpm: life-threatening ventricular arrhythmia or implantable cardioverter-defibrillator shock within the past month: fever 38° C.; serum creatinine 3.0 mg/dL or estimated glomerular filtration rate (eGFR) 30 mL/min/m2; serum potassium 5.3 mmol/L or 3.8 mmol/L; severe hepatic dysfunction.
The study design included a 24 h screening period, a 24 h study drug infusion phase (day 1), a post-treatment phase (days 2-4), and a follow-up visit at day 30 (FIG. 5). Patients could be enrolled at any time after admission. The use of oral medications was permitted during the study with the exception of digoxin. Intravenous diuretics were permitted during the treatment period at stable doses, unless changes were required due to clinically relevant variations of the patient's condition. If treatment with an inotrope was clinically necessary during the infusion period, the investigational product was discontinued. Echocardiography was performed according to international standards at screening, baseline (just before starting study drug infusion), 6, 24 h (just before infusion end), and 48 h after infusion start. Echocardiographic measurements at baseline, 6, 24, and 48 h were evaluated in a blinded fashion by a CoreLab located at the University and Civil Hospital of Brescia, Italy. E/e′ ratio was calculated as the ratio between the peak early diastolic mitral flow velocity (E wave) and the mean of the annular lateral (e′ lateral) and septal (e′ septal) velocities, according to standard guidelines.^20 Intraobserver and interobserver variability in E/e′ measurement was tested on the 15% of the recordings and is shown in FIG. 6. Self-reported dyspnoea was assessed using a 100 mm VAS, with zero representing the worst level of dyspnoea and 10 the best breathing condition. Twenty-four hour ECG monitoring was performed using a three-lead device (Mortara industries, Milwaukee, WI, USA) during the day of screening, the infusion period, and the day after (the latter was optional). Analysis was conducted by a blinded CoreLab (ICS Maugeri, Italy). […]

For experiment [2] the test system is unchanged. Kind of experiment: Clinical secondary endpoints: in-hospital worsening heart failure to day 4, readmissions/ED visits to day 30, length of stay. It counts as in vivo, human. As for the experimental part: The primary efficacy endpoint was the change from baseline to 24 h after the start of the infusion in the E/e ratio assessed by tissue Doppler echocardiography. Secondary endpoints included the change from baseline to 24 h of other echocardiography parameters: LVEF, left ventricular end-systolic and end-diastolic volumes, stroke volume index, E, A, E/A ratio, and S′: changes in dyspnoea by visual analogue scale (VAS) and in NT-proBNP from baseline to 24 h: proportion of patients with hospital readmissions or emergency visits for cardiovascular reasons by day 30; proportion of patients with episodes of in-hospital worsening heart failure to day 4, and length of stay. In-hospital worsening heart failure was defined by the need to increase the dose or reinitiate intravenous therapy with diuretics and/or other inotropic agents to day 4. Safety endpoints were assessed throughout the study and included: incidence of adverse events (AEs): change in vital signs and in 12-lead electrocardiographic (ECG) parameters: incidence of clinically or haemodynamically significant episodes of supraventricular or ventricular arrhythmias detected by continuous ECG monitoring: standard laboratory parameters: renal function: cardiac troponin T (cTnT): incidence of cTnT elevations, and mortality at day 30. Elevations in cTnT were considered significant if they were >50% or >20% from baseline values, for patients with cTnT below or above the 99% upper reference limit at baseline, respectively.
The study was designed as a mechanistic and safety study to assess the effects of a 24 h istaroxime infusion in patients hospitalized for AHF. Based on the changes observed in the HORIZON-HF trial, we assumed that a sample size of at least 20 patients in the placebo group in each cohort with 2:1 randomization to istaroxime would provide sufficient power to assess the effect of istaroxime on the main haemodynamic parameters. Analyses were conducted using a pre-specified modified intention-to-treat (mITT) protocol, including all randomized patients in whom study drug infusion had been initiated and with at least […] available evaluation of efficacy after the baseline. Biomarker and eGFR values were analyzed using medians and inner/outer quartiles, and active treatment was compared to placebo using the Wilcoxon rank-sum test. Dyspnoea scores by VAS were analyzed using mixed model regression with treatment, center, time point, gender, baseline cTnT, presence of atrial fibrillation, treatment by time point interaction, baseline value, and baseline value by time point interaction in the model. Echocardiographic parameters were compared between treatment groups using linear regression with treatment in the model. Categorical variables were summarized as frequency and percent and compared between treatment groups using the Cochran-Mantel-Haenszel test, controlling for study site. AEs were recorded for all enrolled patients and were summarized as AEs, serious AEs (SAEs), AEs leading to discontinuation, and SAEs leading to death. All analyses were conducted using the SAS® System for Windows™, versions 9.1.3 and 9.4.

Counter-ions that a name gives are not always drawn.

Consider `C[C@]12CCC(=NOCCN)C[C@@H]1C(=O)C[C@@H]1[C@@H]2CC[C@]2(C)C(=O)CC[C@@H]12` [Istaroxime, (E,Z)-3-((2-aminoethoxy)imino)androstane-6,17-dione hydrochloride], for which the “Diuresis, median” value in experiment [1] (0.5 μg/kg/min, 0-24 h) came to 2700 mL; in experiment [1] (0.5 μg/kg/min, 24-48 h) it was 1800 mL; in experiment [1] (0.5 μg/kg/min, 48-72 h) it was 1650 mL; in experiment [1] (1.0 μg/kg/min, 0-24 h) it was 1975 mL; in experiment [1] (1.0 μg/kg/min, 24-48 h), 1260 mL; in experiment [1] (1.0 μg/kg/min, 48-72 h), 1350 mL. Also, in experiment [1] (compared to placebo), the “Overall diuresis during the 24 h infusion” value was “numerically higher”. Besides, the “Length of stay, median” value in experiment [2] (0.5 μg/Kg/min) and in experiment [2] (1.0 μg/Kg/min) was 7.0 days in each case. Moreover, the “Hospital readmission/ED visits to Day 30, count of patients” value in experiment [2] (0.5 μg/Kg/min (n = 41)) and in experiment [2] (1.0 μg/Kg/min (n = 40)) was 4 each time. In addition, the “Hospital readmission/ED visits to Day 30, percent of patients” value was “(9.8%)” in experiment [2] (0.5 μg/Kg/min (n = 41)) and “(10%)” in experiment [2] (1.0 μg/Kg/min (n = 40)). Moreover, the “Worsening heart failure to day 4, count of patients” value in experiment [2] (0.5 μg/Kg/min (n = 41)) amounted to 1; in experiment [2] (1.0 μg/Kg/min (n = 40)), 3. Besides, the “Worsening heart failure to day 4, percent of patients” value in experiment [2] (0.5 μg/Kg/min (n = 41)) is recorded as “(2.4%)”; in experiment [2] (1.0 μg/Kg/min (n = 40)), “(7.5%)”.
